According to patent publication US6352703B1, “Compositions and methods for detecting and killing termites” (Board of Supervisors of Louisiana State University and …, priority 1997, dated 2002):

Experiments:
[1] = tested on: Mucor spp. fungus; assay: Antifungal filter paper disk test, trial 1 (Sabouraud dextrose agar); type: cell-based
Protocol: Mucor was isolated from a Formosan termite nest in our laboratory, a nest originally collected from a cottonwood tree in New Orleans, La. The fungus comprised a white mat that covered large areas of the nest that had been exposed to air and water. Fungus was scraped from the nest and suspended in distilled, de-ionized water with a Pasteur pipette. This suspension was streaked on Sabouraud dextrose agar (“SDA”) (Difco Laboratories, Detroit, Mich.) in 100×15 mm plates containing 20 mL SDA. Pure cultures were obtained from individual colonies on these plates as needed. Cultures were maintained on SDA plates in a 27° C. incubator without light until used.
Filter paper disks (Whatman #1, 1.5 cm) were treated with naphthalene, butylated hydroxytoluene (BHT), dioctyl phthalate, or adipic dioctyl ester, at rates of 2 μg, 20 μg, or 200 μg, dissolved in 100 μL hexane. Controls were treated with hexane alone. For each treatment, just prior to testing for antifungal properties, 1 mL of the hexane solution and ten filter paper disks were placed in a vial, and N2 was used to evaporate the hexane.
A suspension was prepared by scraping Mucor conidia (spores) from the culture plates, and mixing into distilled, deionized water with a Pasteur pipette. A thin layer of this suspension was spread over the surface of each of 130 SDA plates by placing each plate onto an inoculation turntable (Fisher Scientific, Hampton, N.H.), pipetting 0.2 mL of the suspension into the center of the plate, spinning the turntable, and spreading the suspension onto the agar with a bent glass rod. The plates were allowed to dry for two hours. A treated filter paper disk was then placed in the center of each plate (10 plates/treatment), and the plates were incubated at 27° C. The extent to which each filter paper disk was covered by fungus was determined by visual inspection (by the method described in greater detail below) after four, five, and six days.
(§1) Fungal growth on each filter paper disk was recorded by making tracings of the disks, inking in areas with visible fungal growth. The fraction of each disk covered by fungus was measured by making photocopy enlargements of these drawings, cutting out the enlarged disks, weighing the entire circle, cutting out the inked areas of the circle (corresponding to fungal growth), and weighing the latter. The fraction of each circle covered with fungus was then calculated as the ratio of these weights. (The weight of the photocopy toner was negligible.)
(§2) Coverage of filter paper disks was analyzed by the ANOVA procedure (SAS Institute, Version 6.11, Cary, N.C.). Tukey's Studentized Range (HSD) Test was used for comparison of mean separations (α=0.05).

[2] = tested on: C. formosanus; settings: in vivo
[3] = tested on: imported red fire ant, Solenopsis invicta Buren; assay: Effect of naphthalene on ants (tolerance comparison); type: in vivo; settings: naphthalene concentrations causing no visible effect on termites
[4] = tested on: Mucor spp. fungus; assay: Antifungal filter paper disk test, trial 3 (cornmeal agar, sealed plates, increased rates); type: cell-based
Protocol: A second trial was conducted with filter papers treated with naphthalene, BHT, or 2,6-di-t-butyl-4-methyl-phenol (“DBP”). A fungal suspension was prepared as in the first trial. Spore concentrations were determined with a counting chamber (Petroff-Hauser, Hauser Scientific Partnership, Horsham, Pa.). Concentrations were adjusted to approximately 10^7 spores/mL. In the first trial fungus grew on SDA quickly, forming a thick mat that soon filled the entire petri dish. […] A thin layer of the spore suspension was spread over the surface of each of 24 cornmeal agar plates using a turntable and bent glass rod, as previously described.
Filter paper disks were treated with naphthalene, BHT, or DBP at rates of 2 μg, 20 μg, or 200 μg, prepared as in the first trial. On each plate were placed four filter paper disks spaced equidistant from one another (one disk containing each of the three application rates of one of the test compounds, and one disk containing only the hexane control). Each plate was then covered and sealed with parafilm to reduce the release of volatile compounds. The concentration of naphthalene in the headspace was 0.04 μg/cm^3; except in trial 3 below, in which the concentration was 34.6 μg/cm^3, about 700 times the concentration we have observed in termite nest materials. […] The experiment was then repeated, increasing the rates of naphthalene, BHT, and DBP to 200 μg, 600 μg, and 1000 μg (trial 3).
as §1, §2

[5] = tested on: Mucor spp. fungus; assay: Antifungal filter paper disk test, trial 2 (cornmeal agar, sealed plates); type: cell-based
Protocol: A second trial was conducted with filter papers treated with naphthalene, BHT, or 2,6-di-t-butyl-4-methyl-phenol (“DBP”). A fungal suspension was prepared as in the first trial. Spore concentrations were determined with a counting chamber (Petroff-Hauser, Hauser Scientific Partnership, Horsham, Pa.). Concentrations were adjusted to approximately 10^7 spores/mL. In the first trial fungus grew on SDA quickly, forming a thick mat that soon filled the entire petri dish. Therefore, in the second trial cornmeal agar (CMA, Difco Laboratories, Detroit, Mich.) was used to slow the growth of the fungus during the six-day observation period. A thin layer of the spore suspension was spread over the surface of each of 24 cornmeal agar plates using a turntable and bent glass rod, as previously described.
Filter paper disks were treated with naphthalene, BHT, or DBP at rates of 2 μg, 20 μg, or 200 μg, prepared as in the first trial. On each plate were placed four filter paper disks spaced equidistant from one another (one disk containing each of the three application rates of one of the test compounds, and one disk containing only the hexane control). Each plate was then covered and sealed with parafilm to reduce the release of volatile compounds. The concentration of naphthalene in the headspace was 0.04 μg/cm^3; except in trial 3 below, in which the concentration was 34.6 μg/cm^3, about 700 times the concentration we have observed in termite nest materials. The growth of fungus on and around each filter paper disk was recorded three, four, and five days after treatment. The experiment was then repeated, increasing the rates of naphthalene, BHT, and DBP to 200 μg, 600 μg, and 1000 μg (trial 3).
as §1, §2

[6] = tested on: Formosan termites; assay: Feeding bioassay; type: in vivo, Coptotermes formosanus; settings: ergosterol standard
Protocol: Sterols identified include 3-β-dihydrocholesterol; (24s)-stigmast-5-en-3-ol; and methyl(3-β,5-α)ergostan-3-ol. […] The bioassay was conducted according to the general procedures of U.S. application Ser. No. 08/243,950, filed May 17, 1994.

[7] = trial 3, 0 μg disk (hexane only) on the same sealed plate as the compound's treated disks
[8] = trial 2, 0 μg disk (hexane only) on the same sealed plate as the compound's treated disks

For c1ccc2ccccc2c1 [Naphthalene, naphthalene], the “Fraction Covered, Day 4 (mean percentage of filter paper disk surface covered by fungus)” value ([1]; trial 1, rate 2 μg per disk) was 71%, the “Fraction Covered, Day 5 (mean percentage of filter paper disk surface covered by fungus)” value ([1]; trial 1, rate 2 μg per disk) was 86% and the “Fraction covered, Day 6 (mean percentage of filter paper disk surface covered by fungus)” value ([1]; trial 1, rate 2 μg per disk) was 98%. The “Fraction Covered, Day 4 (mean percentage of filter paper disk surface covered by fungus)” value ([1]; trial 1, rate 20 μg per disk) was 64%, the “Fraction Covered, Day 5 (mean percentage of filter paper disk surface covered by fungus)” value ([1]; trial 1, rate 20 μg per disk) was 97% and the “Fraction covered, Day 6 (mean percentage of filter paper disk surface covered by fungus)” value ([1]; trial 1, rate 20 μg per disk) was 100%. For the same molecule, the “Fraction Covered, Day 4 (mean percentage of filter paper disk surface covered by fungus)” value ([1]; trial 1, rate 200 μg per disk) was 90%, the “Fraction Covered, Day 5 (mean percentage of filter paper disk surface covered by fungus)” value ([1]; trial 1, rate 200 μg per disk) was 92% and the “Fraction covered, Day 6 (mean percentage of filter paper disk surface covered by fungus)” value ([1]; trial 1, rate 200 μg per disk) was 100%. For the same molecule, the “Tolerance of C. formosanus to naphthalene compared with S. invicta” value [2] was “significantly higher tolerance”, the “Visible effect on termites” value [2] was “no visible effect” and the Effect on ants [3] was “paralyzed”. For the same molecule, the “Inhibition of growth of the fungus, comparison among compounds” value ([4]; of the five compounds tested) was “most effective at inhibiting the growth of this fungus”, the “Fraction Covered, Day 3 (mean percentage of filter paper disk surface covered by fungus)” value [4, 7] was 0% and the “Fraction Covered, Day 4 (mean percentage of filter paper disk surface covered by fungus)” value [4, 7] was 0%. For the same molecule, the “Fraction Covered, Day 5 (mean percentage of filter paper disk surface covered by fungus)” value [4, 7] was 0%, the “Fungal growth on filter paper disks” value ([4]; trial 3, all naphthalene treatments (0-1000 μg)) was “no fungal growth” and the “Fungal growth on treated disks” value ([4]; trial 3, eight days after treatment) was “still free of fungus”. For the same molecule, the “Fungal growth on treated disks” value ([4]; trial 3, fourth day) was “still no growth”, the “Fraction Covered, Day 3 (mean percentage of filter paper disk surface covered by fungus)” value ([4]; trial 3, rate 200 μg per disk) was 0% and the “Fraction Covered, Day 4 (mean percentage of filter paper disk surface covered by fungus)” value ([4]; trial 3, rate 200 μg per disk) was 0%. For the same molecule, the “Fraction Covered, Day 5 (mean percentage of filter paper disk surface covered by fungus)” value ([4]; trial 3, rate 200 μg per disk) was 0%, the “Fraction Covered, Day 3 (mean percentage of filter paper disk surface covered by fungus)” value ([4]; trial 3, rate 600 μg per disk) was 0% and the “Fraction Covered, Day 4 (mean percentage of filter paper disk surface covered by fungus)” value ([4]; trial 3, rate 600 μg per disk) was 0%. For the same molecule, the “Fraction Covered, Day 5 (mean percentage of filter paper disk surface covered by fungus)” value ([4]; trial 3, rate 600 μg per disk) was 0%, the “Fraction Covered, Day 3 (mean percentage of filter paper disk surface covered by fungus)” value ([4]; trial 3, rate 1000 μg per disk) was 0% and the “Fraction Covered, Day 4 (mean percentage of filter paper disk surface covered by fungus)” value ([4]; trial 3, rate 1000 μg per disk) was 0%. For the same molecule, the “Fraction Covered, Day 5 (mean percentage of filter paper disk surface covered by fungus)” value ([4]; trial 3, rate 1000 μg per disk) was 0%, the “Fraction Covered, Day 3 (mean percentage of filter paper disk surface covered by fungus)” value [5, 8] was 98% and the “Fraction Covered, Day 4 (mean percentage of filter paper disk surface covered by fungus)” value [5, 8] was 99%. For the same molecule, the “Fraction Covered, Day 5 (mean percentage of filter paper disk surface covered by fungus)” value [5, 8] was 95%, the “Fraction Covered, Day 3 (mean percentage of filter paper disk surface covered by fungus)” value ([5]; trial 2, rate 2 μg per disk) was 100% and the “Fraction Covered, Day 4 (mean percentage of filter paper disk surface covered by fungus)” value ([5]; trial 2, rate 2 μg per disk) was 99%. For the same molecule, the “Fraction Covered, Day 5 (mean percentage of filter paper disk surface covered by fungus)” value ([5]; trial 2, rate 2 μg per disk) was 100%, the “Fraction Covered, Day 3 (mean percentage of filter paper disk surface covered by fungus)” value ([5]; trial 2, rate 20 μg per disk) was 98% and the “Fraction Covered, Day 4 (mean percentage of filter paper disk surface covered by fungus)” value ([5]; trial 2, rate 20 μg per disk) was 98%. For the same molecule, the “Fraction Covered, Day 5 (mean percentage of filter paper disk surface covered by fungus)” value ([5]; trial 2, rate 20 μg per disk) was 99%, the “Fraction Covered, Day 3 (mean percentage of filter paper disk surface covered by fungus)” value ([5]; trial 2, rate 200 μg per disk) was 100% and the “Fraction Covered, Day 4 (mean percentage of filter paper disk surface covered by fungus)” value ([5]; trial 2, rate 200 μg per disk) was 100%. For the same molecule, the “Fraction Covered, Day 5 (mean percentage of filter paper disk surface covered by fungus)” value ([5]; trial 2, rate 200 μg per disk) was 100%.
With CC(C)[C@@H](C)/C=C/[C@@H](C)[C@H]1CC[C@H]2C3=CC=C4C[C@@H](O)CC[C@]4(C)[C@H]3CC[C@]12C [ergosterol] the Feeding stimulation [6] was “stimulated the feeding”.
